Experimental data taken from PubChem BioAssay AID242 (DTP/NCI, 2004).
“And” between values parts separate entries of the source, which are not always exact repeats. Identical values can stand only once. Toxic doses and inconclusive results are not listed. How the source made its calls: active means survival T/C of 150% or more; inactive means T/C below 125% in these data.

Tested on: BDF1 mice, Lymphoma 8 ip, survival T/C
Experiment: NCI In Vivo Anticancer Drug Screen. Data for tumor model Lymphoma 8 (intraperitoneal) in B6D2F1 (BDF1) mice
Conditions: higher = longer survival
Protocol: The antitumor activity of compounds was measured in mice bearing transplantable tumors. Survival or tumor size were measured and the results are expressed as the measurement made in the treated group (T) divided by the measurement made in the vehicle treated control group (C). The tumor model used in this assay is Lymphoma 8 (intraperitoneal) in B6D2F1 (BDF1) mice

[1] = endpoint: survival time, mean or median, dose: 62.5 mg/kg/injection, schedule: Q01DX015 (ip), vehicle: carboxymethylcellulose (CMC)
[2] = endpoint: survival time, mean or median, dose: 125.0 mg/kg/injection, schedule: Q01DX015 (ip), vehicle: carboxymethylcellulose (CMC)
[3] = endpoint: survival time, mean or median, dose: 25.0 mg/kg/injection, schedule: Q01DX015 (ip), vehicle: carboxymethylcellulose (CMC)
[4] = endpoint: survival time, mean or median, dose: 50.0 mg/kg/injection, schedule: Q01DX015 (ip), vehicle: carboxymethylcellulose (CMC)
[5] = endpoint: survival time, mean or median, dose: 12.5 mg/kg/injection, schedule: Q01DX015 (ip), vehicle: carboxymethylcellulose (CMC)

Measured: T/C

CCCCNc1ncnc2c1cnn2C
inactive: endpoint: survival time, mean or median, dose: 31.3 mg/kg/injection, schedule: Q01DX010 (ip), vehicle: saline 87 % of control and 95 % of control and 100 % of control | endpoint: survival time, mean or median, dose: 62.5 mg/kg/injection, schedule: Q01DX010 (ip), vehicle: saline 86 % of control and 97 % of control and 100 % of control | endpoint: survival time, mean or median, dose: 125.0 mg/kg/injection, schedule: Q01DX010 (ip), vehicle: saline 90 % of control

CC(Cl)CN(Cc1cc(O)c(CN(CC(C)Cl)CC(C)Cl)cc1O)CC(C)Cl (centres undefined)
inactive: [1] 100 % of control | [2] 95 % of control | endpoint: survival time, mean or median, dose: 250.0 mg/kg/injection, schedule: Q01DX015 (ip), vehicle: carboxymethylcellulose (CMC) 94 % of control | endpoint: survival time, mean or median, dose: 500.0 mg/kg/injection, schedule: Q01DX015 (ip), vehicle: carboxymethylcellulose (CMC) 88 % of control and 91 % of control | endpoint: survival time, mean or median, dose: 750.0 mg/kg/injection, schedule: Q01DX015 (ip), vehicle: carboxymethylcellulose (CMC) 90 % of control | endpoint: survival time, mean or median, dose: 1000.0 mg/kg/injection, schedule: Q01DX015 (ip), vehicle: carboxymethylcellulose (CMC) 90 % of control

N#CCSc1ncnc2nc[nH]c12
inactive: endpoint: survival time, mean or median, dose: 15.0 mg/kg/injection, schedule: Q01DX010 (ip), vehicle: saline 100 % of control | endpoint: survival time, mean or median, dose: 30.0 mg/kg/injection, schedule: Q01DX010 (ip), vehicle: saline 95 % of control and 104 % of control | endpoint: survival time, mean or median, dose: 60.0 mg/kg/injection, schedule: Q01DX010 (ip), vehicle: saline 100 % of control | endpoint: survival time, mean or median, dose: 120.0 mg/kg/injection, schedule: Q01DX010 (ip), vehicle: saline 100 % of control

Clc1ccc2c(Cl)ncnc2c1
inactive: [3] 95 % of control | [4] 88 % of control

CCCCN(CCCC)CCCCCN
inactive: endpoint: survival time, mean or median, dose: 5.0 mg/kg/injection, schedule: Q01DX015 (ip), vehicle: carboxymethylcellulose (CMC) 99 % of control | endpoint: survival time, mean or median, dose: 10.0 mg/kg/injection, schedule: Q01DX015 (ip), vehicle: carboxymethylcellulose (CMC) 101 % of control | endpoint: survival time, mean or median, dose: 20.0 mg/kg/injection, schedule: Q01DX015 (ip), vehicle: carboxymethylcellulose (CMC) 104 % of control | endpoint: survival time, mean or median, dose: 30.0 mg/kg/injection, schedule: Q01DX015 (ip), vehicle: carboxymethylcellulose (CMC) 99 % of control

Nc1nc(F)nc2c1ncn2C1OC(CO)C(O)C1O (centres undefined)
inactive: endpoint: survival time, mean or median, dose: 0.75 mg/kg/injection, schedule: Q01DX015 (ip), vehicle: saline 88 % of control

O=C(O)c1[nH]c(=O)[nH]c(=O)c1F
inactive: endpoint: survival time, mean or median, dose: 12.0 mg/kg/injection, schedule: Q01DX015 (ip), vehicle: carboxymethylcellulose (CMC) 99 % of control | [5] 98 % of control

CC(=O)OCC1OC(n2cnc3c(=S)nc(N)[nH]c32)C(OC(C)=O)C1OC(C)=O (centres undefined)
inactive: endpoint: survival time, mean or median, dose: 12.5 mg/kg/injection, schedule: Q01DX015 (ip), vehicle: other 106 % of control | endpoint: survival time, mean or median, dose: 25.0 mg/kg/injection, schedule: Q01DX015 (ip), vehicle: other 107 % of control | endpoint: survival time, mean or median, dose: 50.0 mg/kg/injection, schedule: Q01DX015 (ip), vehicle: other 97 % of control

OCC1OC(n2cnc3c(=S)nc[nH]c32)C(O)C1O (centres undefined)
inactive: endpoint: survival time, mean or median, dose: 20.0 mg/kg/injection, schedule: Q01DX010 (ip), vehicle: saline 104 % of control and 112 % of control | endpoint: survival time, mean or median, dose: 40.0 mg/kg/injection, schedule: Q01DX010 (ip), vehicle: saline 100 % of control and 109 % of control and 112 % of control | endpoint: survival time, mean or median, dose: 80.0 mg/kg/injection, schedule: Q01DX010 (ip), vehicle: saline 105 % of control and 118 % of control and 121 % of control | endpoint: survival time, mean or median, dose: 160.0 mg/kg/injection, schedule: Q01DX010 (ip), vehicle: saline 93 % of control and 118 % of control

Nc1c(Br)cc2c(c1Br)Cc1cc([N+](=O)[O-])ccc1-2
inactive: [1] 88 % of control | [2] 87 % of control

Cn1c(O)c(N=NC(N)=S)c2ccccc21
inactive: endpoint: survival time, mean or median, dose: 1.5 mg/kg/injection, schedule: Q01DX015 (ip), vehicle: carboxymethylcellulose (CMC) 100 % of control | endpoint: survival time, mean or median, dose: 3.0 mg/kg/injection, schedule: Q01DX015 (ip), vehicle: carboxymethylcellulose (CMC) 98 % of control | endpoint: survival time, mean or median, dose: 6.0 mg/kg/injection, schedule: Q01DX015 (ip), vehicle: carboxymethylcellulose (CMC) 99 % of control | [5] 95 % of control | [3] 97 % of control | [4] 124 % of control | endpoint: survival time, mean or median, dose: 100.0 mg/kg/injection, schedule: Q01DX015 (ip), vehicle: carboxymethylcellulose (CMC) 117 % of control | endpoint: survival time, mean or median, dose: 200.0 mg/kg/injection, schedule: Q01DX015 (ip), vehicle: carboxymethylcellulose (CMC) 115 % of control

NC(C/[N+]([O-])=N/O)C(=O)O (centres undefined)
inactive: endpoint: median survival time, dose: 12.5 mg/kg/injection, schedule: Q01DX009 (ip), vehicle: saline 113 % of control | endpoint: median survival time, dose: 25.0 mg/kg/injection, schedule: Q01DX009 (ip), vehicle: saline 117 % of control

NC(=O)/C=C/NC(=O)/C=N\O
inactive: endpoint: survival time, mean or median, dose: 50.0 mg/kg/injection, schedule: Q01DX008 (ip), vehicle: saline 92 % of control | endpoint: survival time, mean or median, dose: 200.0 mg/kg/injection, schedule: Q01DX008 (ip), vehicle: saline 88 % of control

N[C@@H](Cc1ccc(N(CCCl)CCCl)cc1)C(=O)O
inactive: endpoint: survival time, mean or median, dose: 4.0 mg/kg/injection, schedule: Q01DX015 (ip), vehicle: carboxymethylcellulose (CMC) 91 % of control
